Source: patent US20250025440A1, “COMPOSITIONS AND METHODS FOR MANAGEMENT OF HUMAN PAPILLOMA VIRUS-ASSOCIATED CANCERS” (LOMA LINDA UNIVERSITY, priority 2021, published 2025)

What was measured:
Format in all cases: cell-based
SCC104 (HPV+) = test: Colony formation assay; settings: SCC104, treated 24 hours
Protocol: (§1) For assessing the long-term effects on the survival of cells following GA-OH treatment, the colony formation assay (CFA) was performed. Two cell lines, SCC19 (HPV^−) and SCC104 (HPV^+) were used for this study. The cells were treated for 24 hours with GA-OH, and then seeded for assessment of colony formation. Cell survival data from this study mirrored the impact of GA-OH on cell viability of HPV^+ and HPV^− cell lines. […] FIG. 7C is a graphical representation of the effects of GA-OH on the clonogenicity of the surviving fractions of HPV^+ versus HPV^− cell lines.
(§2) Sub-confluent monolayer cells were treated with different doses of GA-OH for 24 hours. Cells were trypsinized and re-suspended before re-plating into 6 well plates in DMEM or MEM at 500-1000 cell densities, depending on the cell line. Cells were then allowed to grow for 10-20 days, depending on the cell line, before fixing and staining. A mixture of methanol/acetic acid was used for fixing, followed by 0.5% crystal violet staining. Plates were imaged using UV imager, and colonies with more than […] counted using image J. Surviving fractions were determined by dividing the number of colonies by the number of cells seeded as a product of the corresponding plating efficiency. Survival fractions curves were plotted using GraphPad Prism.

SCC19 (HPV-) = test: Colony formation assay; settings: SCC19, treated 24 hours
Protocol: as §1, §2

[1] = test system: HPV+ cell lines (SCC090, SCC104, SiHa); test: Caspase 3/7 activity Glo assay; settings: 0.75 μM, 24 hours
Protocol: (§3) These findings were then confirmed by conducting a Caspase 3/7 activity Glo assay, which is a surrogate for apoptotic induction. Three HPV^+ cell lines (SCC090, SCC104, SiHa) and two HPV^− cell lines (SCC19, SCC84) were assessed for activity of caspases 3 and 7, and thus for apoptosis activity. […] FIG. 8B is a graphical representation of the Caspase 3/7 activity of gambogic acid in various HPV+ and HPV− cell lines. These cell lines were seeded in 96 well plates and treated with 0.75 uM GA-OH. Caspase 3/7 activity was measured after 24 hours. HPV^+ cell lines show high levels of Caspase 3/7 activity. […] FIG. 10 is a graphical representation of the cell viability as measured by MTT, when three HPV^+ cell lines (SCC090, SCC104, SiHa) and two HPV^− cell lines (SCC19, SCC84) were treated with gambogic acid.
(§4) Cells were seeded into white walled 96-well plates at 2×10^4 cells per well in 100 μL media and incubated overnight. GA-OH (0.75 μM) and vehicle were then added and incubated at 37° C. for 24 hr. Caspase 3/7 activity was measured using the Caspase 3/7 Glo kit (Promega, Fitchburg, WI, USA) following the manufacturer's instructions. Briefly, room temperature-equilibrated Caspase-Glo reagent was added (Promega) to each well. […] After a 2-hr incubation, luminescence was measured using a plate-reading fluorimeter (Flx800, Bio-Tek Instrument Co., Winooski, VT, USA). […]

[2] = test system: HPV- cell lines (SCC19, SCC84); test: Caspase 3/7 activity Glo assay; settings: 0.75 μM, 24 hours
Protocol: as §3, §4

SCC47 and SCC19 = test: Apoptosis analysis after irradiation (flow cytometry)
Protocol: Kinetics of G2-M arrest when SCC47 and SCC19 are irradiated with or without GA-OH. Cells were treated with radiation (4Gy) followed by GA-OH before cell cycle analysis was performed using […] flow cytometry assay after 24 hours. FIGS. 17A-17B are graphical representations of the kinetics of G2-M arrest when SCC47 and SCC19 are irradiated and followed by treatment with control or with GA-OH, as measured by flow cytometry assays after 24 hours. Cells are arrested to the same extent in the short term (first 12 hours) but over extended periods, SCC19 cells exit the G2-M stage quicker. In the HPV^+ but not HPV^− line, the addition of GA-OH to the radiation protocol delays the exit from the exit the G2-M stage at 24 hours as compared to radiation alone. Apoptosis analysis of SCC47 and SCC19 was performed after irradiation and followed by treatment with control or with GA-OH, as measured by flow cytometry assays after 24 hours. FIGS. 18A-18B are graphical representations of the apoptotic analysis of SCC47 and SCC19 after irradiation with or without GA-OH after 24 hours, as measured by flow cytometry assays. Radiation induces minimal apoptosis on its own.

## 30-hydroxygambogic acid [GA-OH]
SCC104 (HPV+)
  number of colonies: significantly and dose-dependently reduced
SCC19 (HPV-)
  number of colonies: did not exhibit significant reduction relative to their control except at high concentrations
[1]
  Caspase 3/7 activity (apoptosis induction): Significant apoptosis induction
[2]
  Caspase 3/7 activity (apoptosis induction): little to no apoptosis activity
SCC47 and SCC19; 24 hours
  apoptosis, agent alone: appreciable apoptosis
SCC47 and SCC19; SCC47 compared to SCC19, 24 hours
  apoptosis, combination with radiation: greater apoptosis and at a greater rate
